This is an account of results in patent US20120225909A1, “INDAZOLE ANALOG” (priority 2009, published 2012).

Data set [1] concerns the target T1, human β2-adrenergic receptor (Homo sapiens, UniProt P07550).
T1 construct: expressed in transfected cells; host or cells: CHO (Chinese hamster ovary) cells, pcDNA3
The data set is described as follows: Test Case 3-B: human β2-adrenergic receptor agonist activity. The format is cell-based. The settings on record: read-out: β2 receptor I.A. The method, then:
Measurement of Human β2-Adrenergic Receptor Agonist Activity
The human β2-adrenergic receptor agonist activity is measured by the same method as in Test Case 1-B using CHO (Chinese hamster ovary) cells transfected by a human β2 gene inserted in pcDNA3 (Invitrogen).

For data set [2], the system named is pentobarbital-anesthetized rats. The data set is described as follows: Test Case 9: effects on the blood pressure and heart rate in pentobarbital-anesthetized rats. The format is in vivo, rat. The settings on record: anesthetized male SD rats; 3 mg/kg intravenous over 30 seconds; maximum change, mean±standard deviation.

T1 sequence (P07550 whole entry): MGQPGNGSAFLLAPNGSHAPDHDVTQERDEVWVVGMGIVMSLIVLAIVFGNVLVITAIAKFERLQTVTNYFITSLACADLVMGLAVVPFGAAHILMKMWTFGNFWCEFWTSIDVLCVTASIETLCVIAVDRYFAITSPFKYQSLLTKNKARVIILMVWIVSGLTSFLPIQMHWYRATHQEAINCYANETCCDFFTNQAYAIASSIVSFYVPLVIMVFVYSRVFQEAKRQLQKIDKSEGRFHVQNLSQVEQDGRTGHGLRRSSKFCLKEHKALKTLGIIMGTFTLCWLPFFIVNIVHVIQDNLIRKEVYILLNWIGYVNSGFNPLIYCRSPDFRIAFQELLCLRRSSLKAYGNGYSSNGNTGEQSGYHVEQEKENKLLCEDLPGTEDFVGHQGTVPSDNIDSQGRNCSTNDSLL

`Cc1n[nH]c2cc(OCCNC[C@H](O)c3cccc(NS(=O)(=O)C4CCC4)c3)ccc12` [ex3, (R)—N-(3-(1-hydroxy-2-(2-(3-methylindazol-6-yloxy)ethylamino)ethyl)phenyl)cyclobutanesulfonamide]: the Emax in data set [1] is 1%. For the same compound, in data set [2], the “increase in MBP (%)” value came out at 2.0 ± 1.6%.

In the case of `O=S(=O)(Nc1cccc([C@@H](O)CNCCOc2ccc3c(OC(F)F)n[nH]c3c2)c1)C1CC1` [ex4, (R)—N-(3-(2-(2-(3-(difluoromethoxy)-indazol-6-yloxy)ethylamino)-1-hydroxyethyl)phenyl)cyclopropanesulfonamide], the Emax in data set [1] stood at 1%. Besides, in data set [2], the “increase in MBP (%)” value is 2.4 ± 2.2%.

In the case of `Cc1n[nH]c2cc(OCCNC[C@H](O)c3cccc(NS(=O)(=O)c4ccccc4F)c3)ccc12` [ex235, (R)-2-fluoro-N-(3-(1-hydroxy-2-(2-(3-methylindazol-6-yloxy)ethylamino)ethyl)phenyl)benzenesulfonamide], in data set [1], the Emax is 2%. The “increase in MBP (%)” value in data set [2] was 3.4 ± 1.0%.
